Columns and labels:
[1] = system: SAGPY (tuber); assay: Assay for herbicidal activity, paddy pots: SAGPY; type: in vivo, Sagittaria pygmaea MTQ; conditions: three weeks after application, 0 untreated control, 100 complete kill
Description: (§1) To evaluate herbicidal activity against the paddy weeds in the paddy rice (ORYSA: Oryza sativa L.), the herbicidal activity of the compounds of the invention was compared to that of the compound No.109 (compound A) disclosed in U.S. Pat. […] The paddy weeds tested were ECHOR (Echinochloa crus-galli var. oryzicola), SCPJU (Scirpus juncoides ROXB), MOOVA (Monochoria vaginalis […] (Cyperus serotinus ROTTB), and SAGPY (Sagittaria pygmaea MTQ). The vessels employed were plastic pots having an area of 140 cm^2 and filled with a sandy loam soil containing 1.2% organic matter (pH 6).

[2] = system: ECHOR (seed); assay: Assay for herbicidal activity, paddy pots: ECHOR; type: in vivo, Echinochloa crus-galli var. oryzicola; conditions: for ECHOR (seed) herbicidal activity, visual percentage grading: three weeks after application, 0 untreated control, 100 complete kill
Description: as §1

[3] = system: CYPSE (tuber); assay: Assay for herbicidal activity, paddy pots: CYPSE; type: in vivo, Cyperus serotinus ROTTB; conditions: three weeks after application, 0 untreated control, 100 complete kill
Description: as §1

[4] = system: MOOVA (seed); assay: Assay for herbicidal activity, paddy pots: MOOVA; type: in vivo, Monochoria vaginalis PRESL; conditions: three weeks after application, 0 untreated control, 100 complete kill
Description: as §1

[5] = system: SCPJU (seed); assay: Assay for herbicidal activity, paddy pots: SCPJU; type: in vivo, Scirpus juncoides ROXB; conditions: three weeks after application, 0 untreated control, 100 complete kill
Description: as §1

Cc1ccsc1C1=NOC(C)(COCc2ccccc2)C1 (stereo not drawn) [EXAMPLE 5, 5-benzyloxymethyl-5-methyl-3-(4-methylthiophene-5-yl)-1,2-isoxazoline]
SAGPY (tuber) herbicidal activity, visual percentage grading ([1]; 0.016 kg/ha): 0%
SAGPY (tuber) herbicidal activity, visual percentage grading ([1]; 0.063 kg/ha): 0%
SAGPY (tuber) herbicidal activity, visual percentage grading ([1]; 0.250 kg/ha): 20%
SAGPY (tuber) herbicidal activity, visual percentage grading ([1]; 1.000 kg/ha): 50%
SAGPY (tuber) herbicidal activity, visual percentage grading ([1]; 4.000 kg/ha): 70%
ECHOR (seed) herbicidal activity, visual percentage grading ([2]; 0.016 kg/ha): 0%
ECHOR (seed) herbicidal activity, visual percentage grading ([2]; 0.063 kg/ha): 30%
ECHOR (seed) herbicidal activity, visual percentage grading ([2]; 0.250 kg/ha): 100%
ECHOR (seed) herbicidal activity, visual percentage grading ([2]; 1.000 kg/ha): 100%
ECHOR (seed) herbicidal activity, visual percentage grading ([2]; 4.000 kg/ha): 100%
CYPSE (tuber) herbicidal activity, visual percentage grading ([3]; 0.016 kg/ha): 0%
CYPSE (tuber) herbicidal activity, visual percentage grading ([3]; 0.063 kg/ha): 0%
CYPSE (tuber) herbicidal activity, visual percentage grading ([3]; 0.250 kg/ha): 30%
CYPSE (tuber) herbicidal activity, visual percentage grading ([3]; 1.000 kg/ha): 100%
CYPSE (tuber) herbicidal activity, visual percentage grading ([3]; 4.000 kg/ha): 100%
MOOVA (seed) herbicidal activity, visual percentage grading ([4]; 0.016 kg/ha): 0%
MOOVA (seed) herbicidal activity, visual percentage grading ([4]; 0.063 kg/ha): 10%
MOOVA (seed) herbicidal activity, visual percentage grading ([4]; 0.250 kg/ha): 80%
MOOVA (seed) herbicidal activity, visual percentage grading ([4]; 1.000 kg/ha): 90%
MOOVA (seed) herbicidal activity, visual percentage grading ([4]; 4.000 kg/ha): 100%
SCPJU (seed) herbicidal activity, visual percentage grading ([5]; 0.016 kg/ha): 0%
SCPJU (seed) herbicidal activity, visual percentage grading ([5]; 0.063 kg/ha): 10%
SCPJU (seed) herbicidal activity, visual percentage grading ([5]; 0.250 kg/ha): 30%
SCPJU (seed) herbicidal activity, visual percentage grading ([5]; 1.000 kg/ha): 60%
SCPJU (seed) herbicidal activity, visual percentage grading ([5]; 4.000 kg/ha): 100%

Cc1cc(C)c(C2=NOC(C)(COCc3c(F)cccc3F)C2)s1 (stereo not drawn) [EXAMPLE 15, 5-(2,6-difluorobenzyl)oxymethyl-5-methyl-3-(2,4-dimethylthiophene-5-yl)-1,2-isoxazoline]
SAGPY (tuber) herbicidal activity, visual percentage grading ([1]; 0.016 kg/ha): 0%
SAGPY (tuber) herbicidal activity, visual percentage grading ([1]; 0.063 kg/ha): 0%
SAGPY (tuber) herbicidal activity, visual percentage grading ([1]; 0.250 kg/ha): 20%
SAGPY (tuber) herbicidal activity, visual percentage grading ([1]; 1.000 kg/ha): 40%
SAGPY (tuber) herbicidal activity, visual percentage grading ([1]; 4.000 kg/ha): 70%
ECHOR (seed) herbicidal activity, visual percentage grading ([2]; 0.016 kg/ha): 40%
ECHOR (seed) herbicidal activity, visual percentage grading ([2]; 0.063 kg/ha): 100%
ECHOR (seed) herbicidal activity, visual percentage grading ([2]; 0.250 kg/ha): 100%
ECHOR (seed) herbicidal activity, visual percentage grading ([2]; 1.000 kg/ha): 100%
ECHOR (seed) herbicidal activity, visual percentage grading ([2]; 4.000 kg/ha): 100%
CYPSE (tuber) herbicidal activity, visual percentage grading ([3]; 0.016 kg/ha): 0%
CYPSE (tuber) herbicidal activity, visual percentage grading ([3]; 0.063 kg/ha): 0%
CYPSE (tuber) herbicidal activity, visual percentage grading ([3]; 0.250 kg/ha): 70%
CYPSE (tuber) herbicidal activity, visual percentage grading ([3]; 1.000 kg/ha): 100%
CYPSE (tuber) herbicidal activity, visual percentage grading ([3]; 4.000 kg/ha): 100%
MOOVA (seed) herbicidal activity, visual percentage grading ([4]; 0.016 kg/ha): 90%
MOOVA (seed) herbicidal activity, visual percentage grading ([4]; 0.063 kg/ha): 100%
MOOVA (seed) herbicidal activity, visual percentage grading ([4]; 0.250 kg/ha): 100%
MOOVA (seed) herbicidal activity, visual percentage grading ([4]; 1.000 kg/ha): 100%
MOOVA (seed) herbicidal activity, visual percentage grading ([4]; 4.000 kg/ha): 100%
SCPJU (seed) herbicidal activity, visual percentage grading ([5]; 0.016 kg/ha): 20%
SCPJU (seed) herbicidal activity, visual percentage grading ([5]; 0.063 kg/ha): 50%
SCPJU (seed) herbicidal activity, visual percentage grading ([5]; 0.250 kg/ha): 100%
SCPJU (seed) herbicidal activity, visual percentage grading ([5]; 1.000 kg/ha): 100%
SCPJU (seed) herbicidal activity, visual percentage grading ([5]; 4.000 kg/ha): 100%

CC1(COCc2c(F)cccc2F)CC(c2ccc([N+](=O)[O-])s2)=NO1 (stereo not drawn) [EXAMPLE 23, 5-(2,6-difluorobenzyl)oxymethyl-5-methyl-3-(2-nitrothiophene-5-yl)-1,2-isoxazoline]
SAGPY (tuber) herbicidal activity, visual percentage grading ([1]; 0.016 kg/ha): 0%
SAGPY (tuber) herbicidal activity, visual percentage grading ([1]; 0.063 kg/ha): 0%
SAGPY (tuber) herbicidal activity, visual percentage grading ([1]; 0.250 kg/ha): 0%
SAGPY (tuber) herbicidal activity, visual percentage grading ([1]; 1.000 kg/ha): 0%
SAGPY (tuber) herbicidal activity, visual percentage grading ([1]; 4.000 kg/ha): 0%
ECHOR (seed) herbicidal activity, visual percentage grading ([2]; 0.016 kg/ha): 0%
ECHOR (seed) herbicidal activity, visual percentage grading ([2]; 0.063 kg/ha): 30%
ECHOR (seed) herbicidal activity, visual percentage grading ([2]; 0.250 kg/ha): 100%
ECHOR (seed) herbicidal activity, visual percentage grading ([2]; 1.000 kg/ha): 100%
ECHOR (seed) herbicidal activity, visual percentage grading ([2]; 4.000 kg/ha): 100%
CYPSE (tuber) herbicidal activity, visual percentage grading ([3]; 0.016 kg/ha): 0%
CYPSE (tuber) herbicidal activity, visual percentage grading ([3]; 0.063 kg/ha): 0%
CYPSE (tuber) herbicidal activity, visual percentage grading ([3]; 0.250 kg/ha): 50%
CYPSE (tuber) herbicidal activity, visual percentage grading ([3]; 1.000 kg/ha): 80%
CYPSE (tuber) herbicidal activity, visual percentage grading ([3]; 4.000 kg/ha): 100%
MOOVA (seed) herbicidal activity, visual percentage grading ([4]; 0.016 kg/ha): 0%
MOOVA (seed) herbicidal activity, visual percentage grading ([4]; 0.063 kg/ha): 50%
MOOVA (seed) herbicidal activity, visual percentage grading ([4]; 0.250 kg/ha): 70%
MOOVA (seed) herbicidal activity, visual percentage grading ([4]; 1.000 kg/ha): 100%
MOOVA (seed) herbicidal activity, visual percentage grading ([4]; 4.000 kg/ha): 100%
SCPJU (seed) herbicidal activity, visual percentage grading ([5]; 0.016 kg/ha): 0%
SCPJU (seed) herbicidal activity, visual percentage grading ([5]; 0.063 kg/ha): 0%
SCPJU (seed) herbicidal activity, visual percentage grading ([5]; 0.250 kg/ha): 0%
SCPJU (seed) herbicidal activity, visual percentage grading ([5]; 1.000 kg/ha): 0%
SCPJU (seed) herbicidal activity, visual percentage grading ([5]; 4.000 kg/ha): 100%

CC1(COCc2c(F)cccc2F)CC(c2sccc2Br)=NO1 (stereo not drawn) [EXAMPLE 19, 5-(2,6-difluorobenzyl)oxymethyl-5-methyl-3-(4-bromothiophene-5-yl)-1,2-isoxazoline]
SAGPY (tuber) herbicidal activity, visual percentage grading ([1]; 0.016 kg/ha): 0%
SAGPY (tuber) herbicidal activity, visual percentage grading ([1]; 0.063 kg/ha): 0%
SAGPY (tuber) herbicidal activity, visual percentage grading ([1]; 0.250 kg/ha): 0%
SAGPY (tuber) herbicidal activity, visual percentage grading ([1]; 1.000 kg/ha): 20%
SAGPY (tuber) herbicidal activity, visual percentage grading ([1]; 4.000 kg/ha): 30%
ECHOR (seed) herbicidal activity, visual percentage grading ([2]; 0.016 kg/ha): 100%
ECHOR (seed) herbicidal activity, visual percentage grading ([2]; 0.063 kg/ha): 100%
ECHOR (seed) herbicidal activity, visual percentage grading ([2]; 0.250 kg/ha): 100%
ECHOR (seed) herbicidal activity, visual percentage grading ([2]; 1.000 kg/ha): 100%
ECHOR (seed) herbicidal activity, visual percentage grading ([2]; 4.000 kg/ha): 100%
herbicidal activity on ECHOR, in words ([2]; low dose of 0.016 Kg/ha): completely controls the growth of ECHOR
CYPSE (tuber) herbicidal activity, visual percentage grading ([3]; 0.016 kg/ha): 30%
CYPSE (tuber) herbicidal activity, visual percentage grading ([3]; 0.063 kg/ha): 90%
CYPSE (tuber) herbicidal activity, visual percentage grading ([3]; 0.250 kg/ha): 90%
CYPSE (tuber) herbicidal activity, visual percentage grading ([3]; 1.000 kg/ha): 100%
CYPSE (tuber) herbicidal activity, visual percentage grading ([3]; 4.000 kg/ha): 100%
MOOVA (seed) herbicidal activity, visual percentage grading ([4]; 0.016 kg/ha): 20%
MOOVA (seed) herbicidal activity, visual percentage grading ([4]; 0.063 kg/ha): 95%
MOOVA (seed) herbicidal activity, visual percentage grading ([4]; 0.250 kg/ha): 100%
MOOVA (seed) herbicidal activity, visual percentage grading ([4]; 1.000 kg/ha): 100%
MOOVA (seed) herbicidal activity, visual percentage grading ([4]; 4.000 kg/ha): 100%
SCPJU (seed) herbicidal activity, visual percentage grading ([5]; 0.016 kg/ha): 0%
SCPJU (seed) herbicidal activity, visual percentage grading ([5]; 0.063 kg/ha): 100%
SCPJU (seed) herbicidal activity, visual percentage grading ([5]; 0.250 kg/ha): 100%
SCPJU (seed) herbicidal activity, visual percentage grading ([5]; 1.000 kg/ha): 100%
SCPJU (seed) herbicidal activity, visual percentage grading ([5]; 4.000 kg/ha): 100%

COc1ccsc1C1=NOC(C)(COCc2c(F)cccc2F)C1 (stereo not drawn) [EXAMPLE 21, 5-(2,6-difluorobenzyl)oxymethyl-5-methyl-3-(4-methoxythiophene-5-yl)-1,2-isoxazoline]
SAGPY (tuber) herbicidal activity, visual percentage grading ([1]; 0.016 kg/ha): 0%
SAGPY (tuber) herbicidal activity, visual percentage grading ([1]; 0.063 kg/ha): 0%
SAGPY (tuber) herbicidal activity, visual percentage grading ([1]; 0.250 kg/ha): 0%
SAGPY (tuber) herbicidal activity, visual percentage grading ([1]; 1.000 kg/ha): 0%
SAGPY (tuber) herbicidal activity, visual percentage grading ([1]; 4.000 kg/ha): 0%
ECHOR (seed) herbicidal activity, visual percentage grading ([2]; 0.016 kg/ha): 0%
ECHOR (seed) herbicidal activity, visual percentage grading ([2]; 0.063 kg/ha): 100%
ECHOR (seed) herbicidal activity, visual percentage grading ([2]; 0.250 kg/ha): 100%
ECHOR (seed) herbicidal activity, visual percentage grading ([2]; 1.000 kg/ha): 100%
ECHOR (seed) herbicidal activity, visual percentage grading ([2]; 4.000 kg/ha): 100%
CYPSE (tuber) herbicidal activity, visual percentage grading ([3]; 0.016 kg/ha): 0%
CYPSE (tuber) herbicidal activity, visual percentage grading ([3]; 0.063 kg/ha): 40%
CYPSE (tuber) herbicidal activity, visual percentage grading ([3]; 0.250 kg/ha): 60%
CYPSE (tuber) herbicidal activity, visual percentage grading ([3]; 1.000 kg/ha): 80%
CYPSE (tuber) herbicidal activity, visual percentage grading ([3]; 4.000 kg/ha): 100%
MOOVA (seed) herbicidal activity, visual percentage grading ([4]; 0.016 kg/ha): 0%
MOOVA (seed) herbicidal activity, visual percentage grading ([4]; 0.063 kg/ha): 100%
MOOVA (seed) herbicidal activity, visual percentage grading ([4]; 0.250 kg/ha): 100%
MOOVA (seed) herbicidal activity, visual percentage grading ([4]; 1.000 kg/ha): 100%
MOOVA (seed) herbicidal activity, visual percentage grading ([4]; 4.000 kg/ha): 100%
SCPJU (seed) herbicidal activity, visual percentage grading ([5]; 0.016 kg/ha): 0%
SCPJU (seed) herbicidal activity, visual percentage grading ([5]; 0.063 kg/ha): 100%
SCPJU (seed) herbicidal activity, visual percentage grading ([5]; 0.250 kg/ha): 100%
SCPJU (seed) herbicidal activity, visual percentage grading ([5]; 1.000 kg/ha): 100%
SCPJU (seed) herbicidal activity, visual percentage grading ([5]; 4.000 kg/ha): 100%
